Source: patent US10669272B2, “Substituted naphthyridinone compounds useful as T cell activators” (BRISTOL-MYERS SQUIBB COMPANY, priority 2018, dated 2020)
pEC50, pIC50: −log10 of the molar value. Like-named read-outs stand apart in the source and are kept apart here.

Key:
Human venous whole blood = experiment: Human whole blood IFN-γ assay; type: cell-based; conditions: human whole blood, read-out: INFg Whole Blood Normalized Agonist EC50;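 also: blood from healthy donors exposed to compound for 1 h before stimulation with anti-CD3 and anti-CD28 at 1 µg/mL each, IFN-γ quantified in supernatant by AlphaLISA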
Procedure: Human Whole Blood IFN-γ Assay
Human venous whole blood (22.5 μL per well), obtained from healthy donors, was pre-treated with compounds for one hour at 37° C. in a humidified 95% air/5% CO2 incubator. The blood was stimulated with 2.5 μL anti-human CD3 and anti-CD28 mAb at a final concentration of 1 μg/mL each for 24 hours at 37° C. IFN-γ in the supernatants was measured using AlphLISA kit (Cat # AL217).

human DGKζ = molecular target: T1, human DGKζ (Homo sapiens, UniProt Q13574); experiment: DGKζ LIPGLO assay (extruded liposome substrate), in vitro DGK inhibition; type: biochemical; conditions: read-out: DGKz LIPGLO IC50
T1 construct: TVMV protease cleavage site (C); Hexa-His (C); made in house; host or cells: Sf9 insect cells (baculovirus, Bac-to-Bac)

human DGKα = molecular target: T2, human DGKα (Homo sapiens, UniProt P23743); experiment: DGKα LIPGLO assay (extruded liposome substrate), in vitro DGK inhibition; type: biochemical; conditions: read-out: DGKa LIPGLO IC50
T2 construct: TVMV protease cleavage site (C); Hexa-His (C); made in house; host or cells: Sf9 insect cells (baculovirus, Bac-to-Bac)

[1] = normalized to 3 μM reference compound with anti-CD3 plus anti-CD28 as 100% activation
[2] = Homo sapiens, 24 h, normalized to 3 μM reference compound with anti-CD3 plus anti-CD28 as 100% activation
[3] = anti-CD3 plus anti-CD28, 24 hours, 3 μM reference compound = 100% activation
[4] = Homo sapiens, 24 h, anti-CD3 plus anti-CD28, 24 hours, 3 μM reference compound = 100% activation

T2 sequence (P23743 with tags, fused parts or gaps): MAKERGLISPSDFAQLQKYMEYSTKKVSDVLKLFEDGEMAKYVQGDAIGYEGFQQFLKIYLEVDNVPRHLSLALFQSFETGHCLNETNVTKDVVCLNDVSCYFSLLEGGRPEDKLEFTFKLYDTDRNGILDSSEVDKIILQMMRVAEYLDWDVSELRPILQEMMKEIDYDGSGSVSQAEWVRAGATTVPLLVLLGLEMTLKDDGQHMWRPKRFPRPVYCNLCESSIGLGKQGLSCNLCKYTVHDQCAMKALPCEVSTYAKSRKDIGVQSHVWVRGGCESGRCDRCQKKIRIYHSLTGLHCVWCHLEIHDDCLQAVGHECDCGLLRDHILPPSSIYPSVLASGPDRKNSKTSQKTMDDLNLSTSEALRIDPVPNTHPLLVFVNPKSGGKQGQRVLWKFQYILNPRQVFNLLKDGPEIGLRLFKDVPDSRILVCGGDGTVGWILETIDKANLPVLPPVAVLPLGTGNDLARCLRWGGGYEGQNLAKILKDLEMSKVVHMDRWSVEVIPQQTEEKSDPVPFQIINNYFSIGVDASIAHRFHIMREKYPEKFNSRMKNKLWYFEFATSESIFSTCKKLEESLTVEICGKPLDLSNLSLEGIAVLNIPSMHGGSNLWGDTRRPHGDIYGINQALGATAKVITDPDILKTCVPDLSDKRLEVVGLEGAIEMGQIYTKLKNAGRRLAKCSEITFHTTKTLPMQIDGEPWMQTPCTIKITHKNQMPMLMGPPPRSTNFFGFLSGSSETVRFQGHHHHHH
T1 sequence (Q13574 with tags, fused parts or gaps isoform Q13574-4): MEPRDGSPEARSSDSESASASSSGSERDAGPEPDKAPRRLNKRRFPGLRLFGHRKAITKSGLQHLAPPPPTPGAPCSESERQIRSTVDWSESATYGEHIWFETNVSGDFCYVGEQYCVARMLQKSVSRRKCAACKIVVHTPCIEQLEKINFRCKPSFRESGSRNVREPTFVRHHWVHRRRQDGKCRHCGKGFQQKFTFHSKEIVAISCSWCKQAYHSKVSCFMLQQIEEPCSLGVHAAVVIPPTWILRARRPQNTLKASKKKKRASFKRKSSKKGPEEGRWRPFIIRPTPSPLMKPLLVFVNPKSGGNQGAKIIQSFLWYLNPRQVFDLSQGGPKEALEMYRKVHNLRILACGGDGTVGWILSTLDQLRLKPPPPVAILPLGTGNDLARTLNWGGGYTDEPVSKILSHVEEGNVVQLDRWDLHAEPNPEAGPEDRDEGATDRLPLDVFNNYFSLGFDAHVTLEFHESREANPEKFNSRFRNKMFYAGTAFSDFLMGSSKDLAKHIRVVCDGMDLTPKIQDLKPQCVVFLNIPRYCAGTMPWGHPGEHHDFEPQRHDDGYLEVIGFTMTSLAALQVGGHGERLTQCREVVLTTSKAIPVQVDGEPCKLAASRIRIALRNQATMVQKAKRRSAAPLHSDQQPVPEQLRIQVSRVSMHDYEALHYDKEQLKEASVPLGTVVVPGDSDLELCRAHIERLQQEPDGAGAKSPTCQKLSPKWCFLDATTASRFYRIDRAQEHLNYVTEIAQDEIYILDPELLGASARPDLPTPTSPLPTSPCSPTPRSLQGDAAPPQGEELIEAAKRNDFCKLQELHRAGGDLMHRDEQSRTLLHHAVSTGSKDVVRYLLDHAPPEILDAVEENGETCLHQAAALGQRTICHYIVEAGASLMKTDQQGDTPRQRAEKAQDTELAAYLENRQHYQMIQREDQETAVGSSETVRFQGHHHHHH

SMILES	pEC50 (Human venous whole blood; [1])	pIC50 (human DGKζ; liposome (LIPGLO) assay)	pIC50 (human DGKα; liposome (LIPGLO) assay)	pEC50 (Human venous whole blood; [2])	pEC50 (Human venous whole blood; [3])	pIC50 (human DGKζ; DGKζ liposome (LIPGLO) assay)	pIC50 (human DGKα; DGKα liposome (LIPGLO) assay)	pEC50 (Human venous whole blood; [4])
Cc1ccc(C(c2ccc(Cl)cc2)N2C[C@H](C)N(c3cc(=O)n(C)c4ccc(C#N)nc34)C[C@H]2C)nc1 (single isomer, unassigned) [Example 365]	6.44	6.11	6.57					
CC(c1cccc(C(F)F)n1)N1C[C@H](C)N(c2cc(=O)n(C)c3ccc(C#N)nc23)C[C@H]1C (stereo partly drawn) [Example 1222]		6.96	7.80	6.28				
CC[C@@H]1CN(c2cc(=O)n(C)c3ccc(C#N)nc23)[C@@H](C)CN1C(c1ccc(F)cc1)c1cccc(C(F)(F)F)n1 (stereo partly drawn) [Example 1113]	6.00	6.51	6.21					
C[C@@H]1CN(c2c(C#N)c(=O)n(C)c3ccc(C#N)nc23)CCN1C(c1ccc(F)cc1)c1cncnc1 (stereo partly drawn) [Example 318, 8-((3R)-4-((4-fluorophenyl)(pyrimidin-5-yl)methyl)-3-methylpiperazin-1-yl)-5-methyl-6-oxo-5,6-dihydro-1,5-naphthyridine-2,7-dicarbonitrile]		4.85	5.31	5.13				
CC[C@H]1CN(C(c2ccc(F)cc2)c2cc(C3CC3)on2)[C@H](CC)CN1c1cc(=O)n(C)c2ccc(C#N)nc12 (single isomer, unassigned) [Example 1075]	7.43	7.57	7.96					
C[C@@H]1CN(c2cc(=O)n(C)c3ccc(C#N)nc23)[C@@H](C)CN1C(c1ccc(F)cc1)c1nc(C2CCOCC2)no1 (single isomer, unassigned) [Example 740]					6.92	5.89	6.21	
CC(c1ccc(P(C)(C)=O)cc1)N1C[C@H](C)N(c2cc(=O)n(C)c3ccc(C#N)nc23)C[C@H]1C (stereo partly drawn) [Example 1291]	4.70	4.02	4.01					
C[C@@H]1CN(c2c(C#N)c(=O)n(C)c3ccc(C#N)nc23)[C@@H](C)CN1C(c1ccc(F)cc1)c1ccc(C(F)(F)F)cn1 (single isomer, unassigned) [Example 836]						5.31	5.33	5.96
C[C@@H]1CN(c2cc(=O)n(C)c3ccc(C#N)nc23)[C@@H](C)CN1C(Cc1nc(C2CC2)no1)c1ccc(F)cc1 (single isomer, unassigned) [Example 1326]	5.77	6.33	5.92					
C[C@@H]1CN(c2cc(=O)n(C)c3ccc(C#N)nc23)[C@@H](C)CN1Cc1ccc(OC(F)(F)F)c(Cl)c1 [Example 611]		4.68	5.17	5.43				
C[C@@H]1CN(c2cc(=O)n(C)c3ccc(C#N)nc23)[C@@H](C)CN1C(c1ccc(F)cc1)c1cnn(C2CC2)c1 (single isomer, unassigned) [Example 726]					6.10	7.23	5.72	
C[C@@H]1CN(c2c(C#N)c(=O)n(C)c3ccc(C#N)nc23)[C@@H](C)CN1C(c1ccc(F)cc1)c1cnn(C)c1 (stereo partly drawn) [Example 846]						5.07	4.92	5.29
C[C@@H]1CN(c2c(C#N)c(=O)n(C)c3ccc(C#N)nc23)CCN1C(c1ccc(F)cc1)c1ncccc1F (single isomer, unassigned) [Example 891]						5.52	5.51	5.55
C[C@@H]1CN(c2cc(=O)n(C)c3ccc(C#N)nc23)[C@@H](C)CN1Cc1cc(-c2ccccc2)no1 [Example 1425]		5.31	5.23	4.70				
CC[C@H]1CN(C(C)c2ccc(F)cc2F)[C@H](C)CN1c1cc(=O)n(C)c2ccc(C#N)nc12 (single isomer, unassigned) [Example 1138]	5.43	5.85	6.01					
C[C@@H]1CN(c2cc(=O)n(C)c3ccc(C#N)nc23)[C@@H](C)CN1C(c1ccc(F)c(F)c1)c1ccccn1 (mixture of isomers) [Example 366, 8-((2S,5R)-4-((3,4-difluorophenyl)(pyridin-2-yl)methyl)-2,5-dimethylpiperazin-1-yl)-5-methyl-6-oxo-5,6-dihydro-1,5-naphthyridine-2-carbonitrile]		5.70	6.24	6.31				
CC[C@H]1CN(C(C)c2ccc(F)cc2F)[C@H](CC)CN1c1cc(=O)n(C)c2ccc(C#N)nc12 (single isomer, unassigned) [Example 1056]	6.24	6.23	6.06					
Cc1ccc(C)c(C(C)N2CCN(c3c(C#N)c(=O)n(C)c4ccc(C#N)nc34)C[C@H]2C)c1 (single isomer, unassigned) [Example 977]					5.31	6.00	4.32	

SMILES	pEC50 (Human venous whole blood; [1])	pIC50 (human DGKζ; liposome (LIPGLO) assay)	pIC50 (human DGKα; liposome (LIPGLO) assay)	pEC50 (Human venous whole blood; [2])	pEC50 (Human venous whole blood; [3])	pIC50 (human DGKζ; DGKζ liposome (LIPGLO) assay)	pIC50 (human DGKα; DGKα liposome (LIPGLO) assay)	pEC50 (Human venous whole blood; [4])
C[C@@H]1CN(c2cc(=O)n(C)c3ccc(C#N)nc23)[C@@H](C)CN1C(c1ccc(F)cc1)c1ncco1 (stereo partly drawn) [Example 718]	6.08	5.34	7.05					
C[C@@H]1CN(c2c(C#N)c(=O)n(C)c3ccc(C#N)nc23)CCN1C(c1ccc(F)cc1)c1ccc(F)cc1F (stereo partly drawn) [Example 946]						6.14	6.23	6.17
Cn1c(=O)cc(N2CCN(C(c3ccc(F)cc3)c3ccc(F)cc3)CC2c2ccccc2)c2nc(C#N)ccc21 (single isomer, unassigned) [Example 155, 8-(4-(bis(4-fluorophenyl)methyl)-2-phenylpiperazin-1-yl)-5-methyl-6-oxo-5,6-dihydro-1,5-naphthyridine-2-carbonitrile]	4.70	3.62	3.62					
CC[C@@H]1CN(c2c(F)c(=O)n(C)c3ccc(C#N)nc23)CCN1C(c1ccc(Cl)cc1)c1ccc(Cl)cc1 [Example 178, (R)-8-(4-(bis(4-chlorophenyl)methyl)-3-ethylpiperazin-1-yl)-7-fluoro-5-methyl-6-oxo-5,6-dihydro-1,5-naphthyridine-2-carbonitrile]		6.41	6.21	6.24				
C[C@@H]1CN(c2c(C#N)c(=O)n(C)c3ccc(C#N)nc23)[C@@H](C)CN1C(c1cccc(F)c1)c1ccc(C(F)(F)F)cn1 (single isomer, unassigned) [Example 841]					5.48	4.96	4.08	
CC[C@H]1CN(C(c2ccc(F)cc2)c2ccon2)[C@H](CC)CN1c1cc(=O)n(C)c2ccc(C#N)nc12 (single isomer, unassigned) [Example 1072]	6.11	6.12	7.00					
CC[C@H]1CN(C(c2ccc(F)cc2)c2ccc(C(F)(F)F)cn2)[C@H](CC)CN1c1cc(=O)n(C)c2ccc(C#N)nc12 (stereo partly drawn) [Example 1040]	7.24	7.23	7.38					
CC[C@@H]1CN(c2cc(=O)n(C)c3ccc(C#N)nc23)[C@@H](C)CN1C(c1ccc(Cl)cc1)c1ccccn1 (single isomer, unassigned) [Example 423]	6.13	6.77	7.57					
CCC(c1ccc(C2CC2)cc1)N1C[C@H](C)N(c2cc(=O)n(C)c3ccc(C#N)nc23)C[C@H]1C (single isomer, unassigned) [Example 1221]	5.38	5.57	6.07					
C[C@@H]1CN(c2cc(=O)n(C)c3ccc(C#N)nc23)[C@@H](C)CN1C(c1ccc(F)cc1)c1ccc(N2CCOCC2)cc1 (single isomer, unassigned) [Example 663]	4.70	4.62	< 3.60					
C[C@@H]1CN(c2c(C#N)c(=O)n(C)c3ccc(C#N)nc23)[C@@H](C)CN1C(c1cccc(F)c1)c1ccc(C(F)(F)F)cn1 (single isomer, unassigned) [Example 840]					6.09	5.55	4.66	
C[C@@H]1CN(c2c(F)c(=O)n(C)c3ccc(C#N)nc23)[C@@H](C)CN1C(c1ccc(F)cc1)c1c(F)cccc1F (single isomer, unassigned) [Example 336]	5.70	6.64	6.13					
C[C@@H]1CN(c2c(C#N)c(=O)n(C)c3ccc(C#N)nc23)[C@@H](C)CN1C(c1ccc(F)cc1)c1ccccn1 (single isomer, unassigned) [Example 843]					5.42	6.06	6.12	
CC(c1ccc(C#N)cc1)N1CCN(c2c(C#N)c(=O)n(C)c3ccc(C#N)nc23)C[C@H]1C (stereo partly drawn) [Example 955]					4.70	5.52	6.66	
C[C@@H]1CN(c2cc(=O)n(C)c3ccc(C#N)nc23)[C@@H](C)CN1C(c1ccc(F)cc1)c1nc(C(F)F)no1 (stereo partly drawn) [Example 744]					6.51	6.21	7.31	
CC[C@@H]1CN(c2cc(=O)n(C)c3ccc(C#N)nc23)[C@@H](C)CN1Cc1ccc(OC(F)F)cc1 [Example 1330, 8-((2S,5R)-4-(4-(difluoromethoxy)benzyl)-5-ethyl-2-methylpiperazin-1-yl)-5-methyl-6-oxo-5,6-dihydro-1,5-naphthyridine-2-carbonitrile]		6.42	7.36	5.82				
CC(c1cc(F)cc(OC(F)(F)F)c1)N1C[C@H](C)N(c2cc(=O)n(C)c3ccc(C#N)nc23)C[C@H]1C (single isomer, unassigned) [Example 1211]	5.08	6.17	4.89					
COc1cc(F)c(CN2C[C@H](C)N(c3cc(=O)n(C)c4ccc(C#N)nc34)C[C@H]2C)c(F)c1 [Example 1276]		6.62	7.15	6.31				
